Test results as given in patent US11260062B2, “Pharmaceutical composition for treatment of lung cancer comprising glucocorticoid-based compound” (AJOU UNIVERSITY INDUSTRY-ACADEMIC COOPERATION FOUNDATION, priority 2015, dated 2022).
Residues, ends and D or L forms follow the SMILES beside them. *: point of attachment. Cbz = O=C(OCc1ccccc1)*

Tests used:
[1] = tested on: NRF2; test: Western blotting of nuclear and cytoplasmic fractions (NRF2 migration to the nucleus); type: cell-based
From the text: Furthermore, GSK3 inhibits the migration of NRF2 to the nucleus, as known so far.

[2] = tested on: NRF2; test: ARE-luciferase assay for NRF2 activity in A549-ARE cells; type: cell-based
Procedure: In addition, A549-ARE cells were firstly dispensed into 5×10^3 cells per well in a 96 well plate, and each of the clinical compounds was treated with various concentrations (1 μM or 5 μM) after 24 hours. After 24 hours, 30 μl of a lysis buffer was added, and the mixture was dissolved at 4° C. for 40 minutes using a rocker. 20 μl of the dissolved product was added to a 96-well white plate and 100 μl of a luciferase substrate buffer having the following composition was added thereto and luciferase activity was measured by using a plate reader.
The remaining dissolved product was diluted five times with distilled water (DW) and the protein concentration was measured by the Bradford assay (BioRad). Specifically, 200 μl of the Bradford reagent (Coomassie Brilliant Blue G-250) diluted […] with distilled water was reacted with 5 μl of the remaining dissolved product and absorbance was measured at 595 nm. The protein concentration of the dissolved products was calculated by the same experiment using BSA solution as a standard protein. The luciferase value was calibrated by dividing the luciferase value measured above by the measured protein concentration.
Namely, the luciferase assays were performed using […] cells as the method of the Example 1.

[3] = tested on: NRF2; test: Western blotting of NRF2 protein in A549 cells; type: cell-based
Procedure: (§1) Specifically, for Western blotting, the A549 cells expressing Tet-pLKO-NCshRNA (negative control) and three Tet-pLKO-NRF2 shRNAs were treated with doxycycline for 3 days and 6 days, followed by separation of proteins. Each separated 10 μg of the protein was loaded on 8% acrylamide gel, electrophoresed, transferred to nitrocellulose (NC) membrane, and NRF2 antibody (Cell signaling, 1:1000) and actin antibody (SCBT, 1:1000) were diluted in TBST (Tris-Buffered Saline with Tween 20) buffer containing 5% skim milk and reacted overnight at 4° C. Subsequently, the secondary antibody was reacted for 1 hour, washed with TBST, and the protein expression level was measured using ECL (Enhanced chemiluminescence).
Firstly, the A549-tet-on cells transfected with the vector containing GCR-shRNA were constructed and after the treatment with doxycycline and clobetasol propionate, and protein extracts were prepared by hemolysis with cell lysis buffer (Cell signaling technology) supplemented with protease inhibitor cocktail (EMD millipore) to perform Western blotting. Then, western blotting was carried out in the same manner as in the Example 1. At this time, the concentration of the protein was determined by performing a Bradford assay according to the Example 1. In addition, luciferase assays were carried out in the same manner as in the Example 1.
(§2) According to accumulated research results, NRF2 protein levels can be regulated by mRNA transcription, or proteasome related degradation. To confirm whether NRF2 is suppressed through mRNA transcription inhibition or NRF2 is suppressed by promoting proteasome-related degradation, real-time PCR was performed on the cells, and MG132, a proteasome inhibitor, was treated and Western blotting was performed in the same manner as in the Example 1.
In general, proteasome degradation of the NRF2 protein consists of two pathways as shown in FIG. 5a: i.e. a pathway by KEAP1 and a pathway by GSK3-β-TrCP. […]

[4] = tested on: H1299; test: Soft agar assay, H1299; type: cell-based; details: H1299 (KEAP1-normal, LKB1-normal), 2 weeks
Procedure: (§3) The synergistic anticancer effects of the treatment of clobetasol propionate sole and the combined use with rapamycin, an mTOR inhibitor on LKB1/KEAP1 normal lung cancer cell line H1299, KEAP1 mutant cell line H2228, LKB1/KEAP1 mutant lung cancer cell lines A549 and H460 were analyzed by soft agar assay. In order to confirm whether the tumor inhibitory effect of clobetasol propionate was due to NRF2 inhibition, the effect was compared with tumor suppression effect in NRF2 knock-down lung cancer cell line using NRF2-shRNA-2, which was used in the Example 2.
(§4) Specifically, […] of a 0.7% agar-containing DMEM medium was added into a 12-well plate and was solidified (bottom agar) and 300 μl of a DMEM medium containing 3×10^3 cells and 0.35% agar was placed on the solidified agar medium and solidified (top agar+/− Doxycycline). After solidification, 250 μl of DMEM medium (+/− Doxycycline) was added and the number of colonies formed after culturing for 2 weeks in a CO2 incubator was determined, and the result was shown in FIGS. 7a to 7e.

[5] = tested on: NRF2; test: Real-time PCR of NRF2 mRNA in A549 cells; type: cell-based
Procedure: as §2
Specifically, for real-time PCR, total RNA was extracted from A549 cells using TRIZol (Invitrogen). Then, 1 μg of total RNA was reverse transcribed to cDNA using oligo dT primer and SuperScript II Reverse Transcriptase according to the manufacturer's instructions (Invitrogen). Thereafter, PCR was performed according to the manufacturer's instructions (Affymetrix) using HotStart-IT SYBR Green qPCR Master Mix.

[6] = tested on: A549-luc-C8 cells; test: Xenograft assay with A549 cell line, tumor volume; type: in vivo, Balb/c-nu mice; details: 40 days
From the text: Thereafter, mice were sacrificed in a 7.5% CO2 chamber and tumors were obtained for further analysis.

[7] = tested on: H2228; test: Soft agar assay, H2228; type: cell-based; details: H2228 (KEAP1-mutant, LKB1-normal), 2 weeks
Procedure: as §3, §4

[8] = Xenograft assay, body weight / side effects; type: in vivo, Balb/c-nu mice; details: all treatment groups, 40 days
Procedure: On the other hand, xenograft assay was performed using A549 cell line. Specifically, Balb/c-nu mice (6-8 weeks of age, Orient Bio, Seongnam, Korea) were prepared to perform tumor genografts and A549-luc-C8 cells (Perkin Elmer, 5.0×10^6/head) were injected subcutaneously into the mice. Two weeks later, when the size of tumors reached 50-100 mm^3, mice were divided to 6 groups: a control group administered with only vehicle (200 μl of PBS containing 1.2% DMSO, 0.25% PEG 400 and 0.25% tween 80), a group administered with 0.5 mg/kg of clobetasol propionate (CP), a group administered with 1 mg/kg of clobetasol propionate, a group administered with 1 mg/kg of rapamycin, and Combination 1 (CP 0.5 mg/kg+rapamycin 1 mg/kg) and Combination 2 (CP 1 mg/kg+rapamycin 1 mg/kg). Then, for the next 40 days, the vehicle and rapamycin (n=5 per group) were injected intraperitoneally daily (5 days per week) and clobetasol propionate was injected intraperitoneally once every 2 days (3 days per week).
Primary tumor size and body weight were measured every 3 to 4 days by a caliper and a balance, and the volume of the tumor was V (mm^3)=(A×B^2)/2 (V is volume, A Is the long diameter and B is the short diameter).

[9] = tested on: A549; test: Soft agar assay, A549; type: cell-based; details: A549 (KEAP1-mutant, LKB1-mutant), 2 weeks
Procedure: as §3, §4

[10] = tested on: NRF2 target proteins (G6PD, PGD, ME1, GCLM, AKR1B10 and AKR1C3); test: Western blotting of NRF2 target proteins in KEAP1 mutant cells; type: cell-based; details: 2, 4 or 5 days
Procedure: In order to confirm the effect of glucocorticoid on cells having high NRF2-activity, KEAP1 mutant cells (A549 and H2228) were treated with clobetasol propionate for 2 days, 4 days or 5 days, the expression of major NRF2 target proteins (G6PD, PGD, ME1, GCLM, AKR1B10 and AKR1C3) associated with redox regulation was measured by the Western blotting. As a control, the cell was used, in which NRF2-shRNA was transformed to H2228 cell line to inhibit NRF2 expression.

[11] = tested on: H460; test: Soft agar assay, H460; type: cell-based; details: H460 (KEAP1-mutant, LKB1-mutant), sole treatment
Procedure: as §3, §4
Thereafter, the synergistic effect was analyzed when clobetasol propionate and rapamycin were simultaneously treated, or NRF2 was knocked down using NRF2-shRNA and treated with rapamycin.

[12] = tested on: A549 and H2228 cell lines; test: Hydrogen peroxide (active oxygen) measurement with CMH2DCF-DA; type: cell-based
Procedure: In addition, because ME1 and GCLM proteins have detoxification activity of hydrogen peroxide, to confirm this change, the amount of hydrogen peroxide after the treatment with clobetasol propionate was measured as follows: The A549 and H2228 cell lines were cultured in 5 μM CMH2DCF-DA (Invitrogen) after the incubation for 30 minutes, the cultured cells were washed twice with phosphate buffered saline and incubated in the dark for 40 minutes with 90% dimethylsulfoxide (DMSO) and 10% PBS, and the fluorescent dye was released. After the culture, the supernatant of the culture liquid was dispensed into a 96-well plate and the amount of fluorescence was measured at 480/530 nm. For standardization of the measured fluorescence intensity, the cells remaining after removing the supernatant and washing with PBS, were stained with a crystal violet solution (20% methanol and 0.5% crystal violet) for 10 minutes at room temperature. After washing three times, the incubation was performed for solubilization in 1% SDS solution and absorbance at 570 nm was measured.

[13] = tested on: NRF2; test: Verification of doxycycline-inducible NRF2-shRNA in A549-ARE cells (Western blotting, luciferase, GFP); type: cell-based; details: doxycycline-induced, compared among three NRF2-shRNAs
Procedure: In order to construct a Tet-inducible shRNA expression system, the following shRNAs were inserted into a tet-pLKO-pyro vector (Dmitri Wiederschain: Addgene plasmid #21915) and then A549-ARE cell line expressing doxycycline-inducible NRF2-shRNA was established by the transduction.
Then, 0.2 μg/mL of doxycycline (DOX; Clontech) was treated every 2 days in the medium to induce NRF2-shRNA expression. Thereafter, the NRF2 expression inhibition efficiency was verified by Western blotting, luciferase activity measurement and GFP expression measurement using a fluorescence microscope.
as §1

[14] = KEAP1 mutant A549 cells, co-treatment with clobetasol propionate
[15] = co-treatment with clobetasol propionate
[16] = A549-tet-on GCR-shRNA cells, effect blocked by inhibition of GCR expression

Question: Which results are given for `Cc1c[nH]c(-c2cnc(NCCNc3ccc(C#N)cn3)nc2-c2ccc(Cl)cc2Cl)n1` [GSK3 inhibitor, CT99021]?
Answer: effect of clobetasol propionate on NRF2 migration into the nucleus, on GSK3 inhibitor treatment ([1]; under the treatment of MG132, co-treatment with clobetasol propionate): completely blocked; inhibition of activity of NRF2 induced by clobetasol propionate, on GSK3 inhibitor treatment [2, 14]: inhibited; NRF2 proteolysis induced by clobetasol propionate, on GSK3 inhibitor treatment [3, 14]: inhibited

Question: Which “inhibition of NRF2 activity by glucocorticoids, on MG132 treatment” value [2, 15] does the source give for `CC(C)C[C@@H](C=O)NC(=O)[C@H](CC(C)C)NC(=O)[C@H](CC(C)C)NC(=O)OCc1ccccc1` [MG132] (Cbz-Leu-Leu-Leu-aldehyde) here?
Answer: Its value is “does not recover”.

Question: What about the “amount of NRF2 protein inhibited by clobetasol propionate, on MG132 treatment” value [3, 15] of the same compound?
Answer: The value was “recovered”.

Question: For `CCC(=O)O[C@]1(C(=O)CCl)[C@@H](C)C[C@H]2[C@@H]3CCC4=CC(=O)C=C[C@]4(C)[C@@]3(F)[C@@H](O)C[C@@]21C` [clobetasol propionate], which “cell growth (colonies in soft agar)” value [4] is on record?
Answer: The value was “did not significantly affect”.

Question: And the “migration of NRF2 into the nucleus” value ([1]; under the treatment of MG132)?
Answer: The value was “inhibited”.

Question: And the “mRNA level of NRF2” value [5]?
Answer: Its value is “did not affect”.

Question: What about the “time for which inhibition of NRF2 activity was maintained” value ([2]; 100 nM, measured at 8, 24 and 48 hours) of the same compound?
Answer: Its value is “at least 48 hours”.

Question: What about the “NRF2 inhibitory effect at 1 μM compared among 13 GCs-based drugs” value ([2]; 1 μM) of the same compound?
Answer: The value was “most excellent inhibitory effect”.

Question: And the “activity of the NRF2 protein (luciferase)” value [2, 16]?
Answer: Its value is “significantly reduced”.

Question: What about the “concentration from which excellent NRF2 inhibitory effect is shown (luciferase)” value ([2]; concentration comparison of 13 GCs-based drugs) of the same compound?
Answer: The value was ≥ 1 nM.

Question: And the “anticancer effect (tumor volume)” value ([6]; 0.5 mpk intraperitoneally once every 2 days)?
Answer: The value was “distinct anticancer effect”.

Question: And the “anticancer effect (tumor volume)” value ([6]; 1 mpk intraperitoneally once every 2 days)?
Answer: The value was “distinct anticancer effect”.

Question: And the “cell growth (colonies in soft agar)” value [7]?
Answer: The value was “strongly inhibited”.

Question: And the “level of the NRF2 protein (Western blot)” value [3, 16]?
Answer: The value was “significantly reduced”.

Question: And the “body weight of the mice” value [8]?
Answer: Its value is “no significant change”.

Question: And the “cell growth (colonies in soft agar)” value [9]?
Answer: The value was “strongly inhibited”.

Question: What about the “NRF2 target protein expression” value ([10]; A549 cell line) of the same compound?
Answer: Its value is “effectively inhibited”.

Question: What about the “expression of NRF2 target which has antioxidative activity” value ([10]; H2228 cell line) of the same compound?
Answer: Its value is “effectively inhibited”.

Question: What about the “cell growth (colonies in soft agar)” value [11] of the same compound?
Answer: Its value is “slightly inhibited”.

Question: What about the “active oxygen (hydrogen peroxide)” value ([12]; A549) of the same compound?
Answer: The value was “significantly increased”.

Question: And the “active oxygen (hydrogen peroxide)” value ([12]; H2228)?
Answer: The value was “significantly increased”.

Question: Which “body weight of the mice” value [8] does the source give for `CO[C@H]1C[C@@H]2CC[C@@H](C)[C@@](O)(O2)C(=O)C(=O)N2CCCC[C@H]2C(=O)O[C@H]([C@H](C)C[C@@H]2CC[C@@H](O)[C@H](OC)C2)CC(=O)[C@H](C)/C=C(\C)[C@@H](O)[C@@H](OC)C(=O)[C@H](C)C[C@H](C)/C=C/C=C/C=C/1C` [rapamycin] here?
Answer: The value was “no significant change”.

Question: Which “inhibition of NRF2 protein expression, luciferase activity and GFP signal” value [13] does the source give for “NRF2sh-2: doxycyclin-inducible NRF2-shRNA, SEQ. NO. 2 of Table 1 (CCGGGCTCCTACTGTGATGTGAAATCTCGAGATTTCACATCACAGTAGGAGCTTTTTG)” here?
Answer: The value was “most effectively”.
